Patent publication US5340800A, “Peptide medicaments for the treatment of disease” (priority 1992, dated 1994)
Like-named read-outs stand apart in the source and are kept apart here. No end group written: not given here.

What was measured:
[1] = tested on: polymorphonuclear leukocyte migration; experiment: Chemotaxis of polymorphonuclear leukocytes (trans-well, zymosan-activated human serum); type: cell-based
Description: The materials and methods for ascertaining the chemotactic inhibitory properties of peptides are generally known in the art, and the preferred procedure is described by Capsoni, et al., 1989, J. of Immunol. Meth., 120:125. Generally, chemotaxis is determined by positioning the leukocytes and a chemotactic substance on opposite sides of a membrane in appropriate culture media. The preferred apparatus for doing a chemotaxis assay is produced by Costar Corporation, Cambridge, Mass., and is termed the trans-well cell culture apparatus. […] If a substance is being tested for inhibitory activity this can be achieved by combining it with the leukocytes or the chemotactic substance.
The procedure of Capsoni, et al., above, was followed with the following modifications. Leukocytes may be isolated and labelled with ^111 Indium as described for the adhesion assay, above. The cells are resuspended after labelling in an appropriate cell culture medium at about 5×10^6 cells/ml. Next, a desired amount of the cell suspension is mixed with a predetermined amount of the peptide(s) to be tested for inhibitory activity, and the mixture added to an appropriate filter device. Three μm-pore membranes are situated in the wells of a 24 trans-well tissue culture plate. The cell/inhibitory peptide mixture is incubated for a short time at 37° C. to acclimate the cells to the membrane surface, and to provide sufficient time for them to settle onto the membrane surface. Next, inserts are set in wells containing cell culture media. The media contains zymosan-activated human serum at about 0.5%. Zymosan activation generates complement-derived chemotactic factors which attract the leukocytes through the pores of the membrane. This media was also prewarmed for an appropriate time prior to addition to the cell culture wells. After a 30 minute incubation period at 37° C., the number of leukocytes that have migrated through the membrane filter, in the presence or absence of CD18 peptides, is readily determined by counting the amount of ^111 Indium present in the media. This may be facilitated by adding an appropriate detergent at an appropriate concentration to the media in the wells prior to removing an aliquot for counting. In this way, the inhibitory activities of the peptide being tested could be determined.
Many of the materials and methods used to test the inhibitory activity of the CD18 peptides on the chemotactic response of the polymorphonuclear leukocytes are similar or identical to those used to perform the adhesion assays described in Example 1. Polymorphonuclear leukocytes were isolated and labelled with ^111 Indium as described before, and the cells were suspended in RPMI 1640 culture medium at a concentration of 5×10^6 /ml. Next, 75 μl of the cell suspension and 25 μl of media containing a desired concentration of a CD18 peptide were added to trans-well inserts, and the mixture was incubated at 37° C. for 10 minutes.
To the bottom wells of the 24-well plate 0.6 ml of media containing 0.5% zymosan-activated human serum was added. This solution was also warmed to 37° C. for 10 minutes prior to use.
Next, the assay was conducted by incubating the trans-well inserts containing the cell suspension with the desired CD18 peptide in the 24-well plates at 37° C. for 30 minutes. Subsequently, the inserts were removed, and 60 μl of a 10% sodium dodecyl sulphate solution was added to the wells of the 24-well plate. The plates were incubated with gentle shaking at room temperature for 15 minutes, and 110 μl aliquots were removed and the amount of ^111 Indium determined using a gamma-counter.

[2] = tested on: polymorphonuclear leukocyte adhesion to TNF activated endothelial cells; type: cell-based, human; details: for Average % Change of PMN Adhesion to TNF Activated ECs: average over PMN donors (# donors in parentheses)
Description: Leukocyte adherence can be measured using several assays known in the art, and the preferred assay is described by Charo, et al., 1985, Blood, 65:473. Briefly, the assay consists of labelling leukocytes with an appropriate label, incubating them with endothelial cells and determining the number of leukocytes that adhere. Preferably the cells are labelled with a gamma ray emitting isotope and the preferred labels are ^111 Indium-oxide or ^51 chromium.
Leukocytes may be isolated from human donors using standard techniques. This generally consists of isolating blood in a physiologically balanced salt solution containing an appropriate anticoagulant, and separating the leukocytes by an appropriate separation step, preferably on Ficoll-Hypaquegradients. Contaminating erythrocytes can be removed by hypotonic lysis. The resulting leukocytes are suspended in a physiologically buffered solution, pH 7.4. The preferred physiological buffered solution is Hank's balanced salt solution that is calcium and magnesium free.
The isolated leukocytes can then be labelled by incubating them for an appropriate time, generally 15 minutes, with the desired radioisotope at a predetermined concentration. The radiolabelled cells are washed to remove unincorporated label, and then suspended in an appropriate solution to perform the adhesion assay described below.
Endothelial cells can be prepared from a number of sources and by several techniques known in the art. Preferably they are obtained from human umbilical veins using the procedure of Charo et al., above. Generally, endothelial cells are isolated by enzymatic digestion of the umbilical veins using, preferably, collagenase as described by Jaffe, E. A., et al., 1973, J. of Clin. Invest, 52:2745. The cells are grown on an appropriate tissue culture substratum, preferably gelatine-coated surfaces.
The endothelial cells may be grown in a variety of tissue culture media containing appropriate supplements such as an appropriate concentration of fetal calf serum, and other supplements/additives routinely utilized by those skilled in this art that are recognized as being favorable for endothelial cells. The endothelial cells may be passaged with a dilute solution of an appropriate protease, and if desired a metal ion chelator. Preferably a solution consisting of 0.05 to 0.25% trypsin and 0.02% EDTA is used. To ensure that the cells are indeed endothelial cells, they are tested by immunofluorescence for Factor VIII antigen, a known endothelial cell marker.
Leukocyte adherence to endothelial cell monolayers may be determined as follows. Early passage endothelial cells, generally not beyond the fifth passage, are cultured on an appropriate substratum and in a suitable cell culture medium. The culture substratum is preferably pre-coated with an appropriate substance that enhances the adherence of the endothelial cells. Several such substances are known including fibronectin, poly-L-lysine, gelatin and laminin. Fibronectin is preferred. An appropriate culture substratum is a 96 well micro titer plate, and a suitable medium is Medium 199 containing fetal calf serum and other supplements known to be beneficial for the growth and maintenance of endothelial cells that are well known to those skilled in the art. Prior to adding a predetermined number of labelled leukocytes, the endothelial cell monolayer is washed with a physiologically balanced salt solution containing a reduced amount of fetal calf serum, preferably 1%. The preferred solution is RPMI supplemented with 1% fetal calf serum.
The endothelial cell monolayer containing added leukocytes is incubated for a time sufficient to permit maximum adherence of the leukocytes, and preferably this is conducted at 37° C. for 30 minutes in an appropriate cell culture atmosphere. Generally this would consist of growing and incubating the cells for the assay period in 5% CO2, 95% air, and 95% humidity. […]

## YPIDLYYLMDLSYSMLDDLRNVKKLG [Peptide 1-26, NH2 --Tyr--Pro--Ile--Asp--Leu--Tyr--Tyr--Leu--Met--Asp--Leu--Ser--Tyr--Ser--Met--Leu--Asp--Asp--Leu--Arg--Asn--Val--Lys--Lys--Leu--Gly--COOH]
[1]; 10^-4 M, donor 195
  percent inhibition (-) or enhancement of polymorphonuclear leukocyte migration: 19%
[1]; 10^-4 M, donor 499
  percent inhibition (-) or enhancement of polymorphonuclear leukocyte migration: 8%
[1]; 10^-4 M, donor 591
  percent inhibition (-) or enhancement of polymorphonuclear leukocyte migration: -9%
[1]; 10^-4 M, donor 593
  percent inhibition (-) or enhancement of polymorphonuclear leukocyte migration: -50%
[1]; 10^-5 M, donor 195
  percent inhibition (-) or enhancement of polymorphonuclear leukocyte migration: -41%
[1]; 10^-5 M, donor 499
  percent inhibition (-) or enhancement of polymorphonuclear leukocyte migration: -3%
[1]; 10^-5 M, donor 591
  percent inhibition (-) or enhancement of polymorphonuclear leukocyte migration: -36%
[1]; 10^-5 M, donor 593
  percent inhibition (-) or enhancement of polymorphonuclear leukocyte migration: -19%
[1]; 10^-6 M, donor 195
  percent inhibition (-) or enhancement of polymorphonuclear leukocyte migration: -37%
[1]; 10^-6 M, donor 499
  percent inhibition (-) or enhancement of polymorphonuclear leukocyte migration: 13%
[1]; 10^-6 M, donor 591
  percent inhibition (-) or enhancement of polymorphonuclear leukocyte migration: -39%
[1]; 10^-6 M, donor 593
  percent inhibition (-) or enhancement of polymorphonuclear leukocyte migration: -14%
[2]
  concentration of peak inhibitory activity in the PMN adhesion assay: 10^-4 to 10^-5 M
[2]; 10^-4 M
  Average % Change of PMN Adhesion to TNF Activated ECs: -41%
[2]; 10^-5 M
  Average % Change of PMN Adhesion to TNF Activated ECs: -33%
[2]; 10^-6 M
  Average % Change of PMN Adhesion to TNF Activated ECs: -6%
[2]; 10^-7 M
  Average % Change of PMN Adhesion to TNF Activated ECs: +24%
[2]; 10^-8 M
  Average % Change of PMN Adhesion to TNF Activated ECs: +9%
